Molecules are shown by their SMILES.

Among the data in patent US20230143612A1 (Arbutus Biopharma Corporation, priority 2020, published 2023) are IC50 values, retold here.

For the assay, the target named is PD-L1 His protein / PD-1 Fc protein (Homo sapiens, UniProt Q9NZQ7). Put plainly: HTRF Assay (PD-1/PD-L1 interaction). The class given is binding. The note with it: PD-L1 His 6 nM, PD-1 Fc 6 nM. The procedure, abridged: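 HTRF: PD-L1 His (6 nM final), compound (3-fold dilutions, 20 μM to 0.001 μM final) and PD-1 Fc (6 nM final) preincubated 15 min at room temperature. Anti-human IgG-XL665 and anti-6HIS Tb cryptate (mixed at 6.7 nM and 0.35 nM) then added for 1 h at room temperature before reading.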
Chain of PD-L1 His protein / PD-1 Fc protein (Q9NZQ7 19-238 limits assumed): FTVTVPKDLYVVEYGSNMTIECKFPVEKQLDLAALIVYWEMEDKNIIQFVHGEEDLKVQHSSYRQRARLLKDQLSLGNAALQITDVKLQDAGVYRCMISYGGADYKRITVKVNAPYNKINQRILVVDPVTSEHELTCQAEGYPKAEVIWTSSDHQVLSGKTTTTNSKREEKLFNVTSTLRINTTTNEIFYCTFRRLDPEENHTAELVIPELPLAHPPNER

In the case of `COc1nc(-c2cccc(-c3cccc(-c4ccn5c(=O)c(CNC[C@@H]6CCO6)cnc5c4)c3Cl)c2Cl)ccc1CNC[C@@H]1CCC(=O)N1` [Example 306, 8-[2-Chloro-3-[2-chloro-3-[6-methoxy-5-[[[(2S)-5-oxopyrrolidin-2-yl]methylamino]methyl]-2-pyridyl]phenyl]phenyl]-3-[[[(2S)-oxetan-2-yl]methylamino]methyl]pyrido[1,2-a]pyrimidin-4-one], inhibition was half-maximal at 4.8 nM (IC50). The result for `COc1nc(-c2cccc(-c3cccc(-c4ccn5c(=O)c(CNC[C@@H]6CCCO6)cnc5c4)c3Cl)c2Cl)ccc1CNC[C@@H]1CCC(=O)N1` [Example 307, 8-[2-Chloro-3-[2-chloro-3-[6-methoxy-5-[[[(2S)-5-oxopyrrolidin-2-yl]methylamino]methyl]-2-pyridyl]phenyl]phenyl]-3-[[[(2S)-tetrahydrofuran-2-yl]methylamino]methyl]pyrido[1,2-a]pyrimidin-4-one] reads 37 nM; that for `COc1nc(-c2cccc(-c3cccc(-c4cc(C)n5c(=O)c(CNCCO)cnc5c4)c3Cl)c2Cl)ccc1CNC[C@@H]1CCC(=O)N1` [Example 308, (S)-8-(2,2′-Dichloro-3′-(6-methoxy-5-((((5-oxopyrrolidin-2-yl)methyl)amino)methyl)pyridin-2-yl)-[1,1′-biphenyl]-3-yl)-3-(((2-hydroxyethyl)amino)methyl)-6-methyl-4H-pyrido[1,2-a]pyrimidin-4-one], 22 nM; that for `COc1nc(-c2cccc(-c3cccc(-c4cn5c(CNC[C@@H]6CCC(=O)N6)cnc5cn4)c3Cl)c2Cl)ccc1CNC[C@@H]1CCC(=O)N1` [Example 309, (S)-5-((((6-(2,2′-Dichloro-3′-(3-(((((S)-5-oxopyrrolidin-2-yl)methyl)amino)methyl)imidazo[1,2-a]pyrazin-6-yl)-[1,1′-biphenyl]-3-yl)-2-methoxypyridin-3-yl)methyl)amino)methyl)pyrrolidin-2-one], 0.3 nM. For `COc1nc(-c2cccc(-c3cccc(-c4cnc5c(CNC[C@@H]6CCC(=O)N6)cnn5c4)c3Cl)c2Cl)ccc1CNC[C@@H]1CCC(=O)N1` [Example 310, (S)-5-((((6-(2,2′-Dichloro-3′-(3-(((((S)-5-oxopyrrolidin-2-yl)methyl)amino)methyl)pyrazolo[1,5-a]pyrimidin-6-yl)-[1,1′-biphenyl]-3-yl)-2-methoxypyridin-3-yl)methyl)amino)methyl)pyrrolidin-2-one], the IC50 came to 0.2 nM. To `COc1nc(-c2cccc(-c3cccc(-c4cnc5cc(CNC[C@@H]6CCC(=O)N6)oc5c4)c3Cl)c2Cl)ccc1CNC[C@@H]1CCC(=O)N1` [Example 311, (S)-5-((((6-(2,2′-Dichloro-3′-(2-(((((S)-5-oxopyrrolidin-2-yl)methyl)amino)methyl)furo[3,2-b]pyridin-6-yl)-[1,1′-biphenyl]-3-yl)-2-methoxypyridin-3-yl)methyl)amino)methyl)pyrrolidin-2-one] belongs 5 nM; to `COc1nc(-c2cccc(-c3cccc(-c4ccc5c(n4)nc(CNC[C@@H]4CCC(=O)N4)n5C)c3Cl)c2Cl)ccc1CNC[C@@H]1CCC(=O)N1` [Example 312, (S)-5-((((6-(2,2′-Dichloro-3′-(1-methyl-2-(((((S)-5-oxopyrrolidin-2-yl)methyl)amino)methyl)-1H-imidazo[4,5-b]pyridin-5-yl)-[1,1′-biphenyl]-3-yl)-2-methoxypyridin-3-yl)methyl)amino)methyl)pyrrolidin-2-one], 0.1 nM; to `COc1nc(-c2cccc(-c3cccc(-c4ccc5c(n4)nc(CN[C@H]4C[C@H](O)C4)n5C)c3Cl)c2Cl)ccc1CN[C@H]1C[C@H](O)C1` [Example 313, (1r,3r)-3-(((6-(2,2′-Dichloro-3′-(2-((((1r,3r)-3-hydroxycyclobutyl)amino)methyl)-1-methyl-1H-imidazo[4,5-b]pyridin-5-yl)-[1,1′-biphenyl]-3-yl)-2-methoxypyridin-3-yl)methyl)amino)cyclobutan-1-ol], 1.9 nM. The compound `COc1nc(-c2cccc(-c3cccc(-c4ccc5nc(CNC[C@@H]6CCC(=O)N6)n(C)c5n4)c3Cl)c2Cl)ccc1CNC[C@@H]1CCC(=O)N1` [Example 314, (S)-5-((((6-(2,2′-Dichloro-3′-(3-methyl-2-(((((S)-5-oxopyrrolidin-2-yl)methyl)amino)methyl)-3H-imidazo[4,5-b]pyridin-5-yl)-[1,1′-biphenyl]-3-yl)-2-methoxypyridin-3-yl)methyl)amino)methyl)pyrrolidin-2-one] displayed an IC50 of 3.9 nM.

Turning to `COc1nc(-c2cccc(-c3cccc(-c4ccc5nc(CN[C@H]6C[C@H](O)C6)n(C)c5n4)c3Cl)c2Cl)ccc1CN[C@H]1C[C@H](O)C1` [Example 315], the IC50 is 0.4 nM.

Consider `COc1nc(-c2cccc(-c3cccc(-c4ccn5c(=O)c(CNCCCO)cnc5c4)c3Cl)c2Cl)ccc1CNC[C@@H]1CCC(=O)N1` [Example 316, (S)-8-(2,2′-Dichloro-3′-(6-methoxy-5-((((5-oxopyrrolidin-2-yl)methyl)-amino)methyl)-pyridin-2-yl)-[1,1′-biphenyl]-3-yl)-3-(((3-hydroxypropyl)amino)methyl)-4H-pyrido[1,2-a]pyrimidin-4-one], for which the IC50 was 0.3 nM. Compound `COc1nc(-c2cccc(-c3cccc(-c4ccn5c(=O)c(CN(C)CCCO)cnc5c4)c3Cl)c2Cl)ccc1CNC[C@@H]1CCC(=O)N1` [Example 317, (S)-8-(2,2′-Dichloro-3′-(6-methoxy-5-((((5-oxopyrrolidin-2-yl)methyl)amino)methyl)pyridin-2-yl)-[1,1′-biphenyl]-3-yl)-3-(((3-hydroxypropyl)(methyl)amino)methyl)-4H-pyrido[1,2-a]pyrimidin-4-one] had a half-maximal inhibitory concentration (IC50) of 0.2 nM.

For `COc1nc(-c2cccc(-c3cccc(-c4ccn5c(=O)c(CN(C)[C@H]6C[C@](C)(O)C6)cnc5c4)c3Cl)c2Cl)ccc1CNC[C@@H]1CCC(=O)N1` [Example 318, 8-(2,2′-Dichloro-3′-(6-methoxy-5-(((((S)-5-oxopyrrolidin-2-yl)methyl)-amino)-methyl)-pyridin-2-yl)-[1,1′-biphenyl]-3-yl)-3-((((1r,3r)-3-hydroxy-3-methylcyclobutyl)(methyl)amino)methyl)-4H-pyrido[1,2-a]pyrimidin-4-one], the IC50 came to 0.1 nM. The compound `COc1nc(-c2cccc(-c3cccc(-c4ccn5c(=O)c(CN(C)C[C@H](C)O)cnc5c4)c3Cl)c2Cl)ccc1CNC[C@@H]1CCC(=O)N1` [Example 319, 8-[2-Chloro-3-[2-chloro-3-[6-methoxy-5-[[[(2S)-5-oxopyrrolidin-2-yl]methylamino]methyl]-2-pyridyl]phenyl]phenyl]-3-[[[(2S)-2-hydroxypropyl]-methyl-amino]methyl]pyrido[1,2-a]pyrimidin-4-one] came in with an IC50 of 0.1 nM. `COc1nc(-c2cccc(-c3cccc(-c4ccn5c(=O)c(CNCCN6CCCC6=O)cnc5c4)c3Cl)c2Cl)ccc1CNCCN1CCCC1=O` [Example 321, 8-[2-Chloro-3-[2-chloro-3-[6-methoxy-5-[[2-(2-oxopyrrolidin-1-yl)ethylamino]methyl]-2-pyridyl]phenyl]phenyl]-3-[[2-(2-oxopyrrolidin-1-yl)ethylamino]methyl]pyrido[1,2-a]pyrimidin-4-one] yielded an IC50 of 0.2 nM. The result for `COc1nc(-c2cccc(-c3cccc(-c4ccn5c(=O)c(CNC6CCN(C(C)=O)CC6)cnc5c4)c3Cl)c2Cl)ccc1CNC1CCN(C(C)=O)CC1` [Example 322, 3-[[(1-Acetyl-4-piperidyl)amino]methyl]-8-[3-[3-[5-[[(1-acetyl-4-piperidyl)amino]methyl]-6-methoxy-2-pyridyl]-2-chloro-phenyl]-2-chloro-phenyl]pyrido[1,2-a]pyrimidin-4-one] reads 0.1 nM; that for `COc1nc(-c2cccc(-c3cccc(-c4cc(C)n5c(=O)c(C6=NCC(O)CN6)cnc5c4)c3Cl)c2Cl)ccc1CNC[C@@H]1CCC(=O)N1` (stereo partly drawn) [Example 323, 8-(2,2′-Dichloro-3′-(6-methoxy-5-(((((S)-5-oxopyrrolidin-2-yl)methyl)amino)methyl)pyridin-2-yl)-[1,1′-biphenyl]-3-yl)-3-(5-hydroxy-1,4,5,6-tetrahydropyrimidin-2-yl)-6-methyl-4H-pyrido[1,2-a]pyrimidin-4-one], 5.9 nM; that for `COc1nc(-c2cccc(-c3cccc(-c4ccc5nc(CNC[C@H](C)O)cc(=O)n5c4)c3Cl)c2Cl)ccc1CNC[C@@H]1CCC(=O)N1` [Example 324, 7-(2,2′-Dichloro-3′-(6-methoxy-5-(((((S)-5-oxopyrrolidin-2-yl)methyl)amino)methyl)pyridin-2-yl)-[1,1′-biphenyl]-3-yl)-2-((((S)-2-hydroxypropyl)amino)methyl)-4H-pyrido[1,2-a]pyrimidin-4-one], 5.7 nM.

`COc1nc(-c2cccc(-c3cccc(-c4ccc5nc(CN[C@H]6C[C@](C)(O)C6)cc(=O)n5c4)c3Cl)c2Cl)ccc1CNC[C@@H]1CCC(=O)N1` [Example 325, 7-(2,2′-dichloro-3′-(6-methoxy-5-(((((S)-5-oxopyrrolidin-2-yl)methyl)amino)methyl)pyridin-2-yl)-[1,1′-biphenyl]-3-yl)-2-((((1r,3r)-3-hydroxy-3-methylcyclobutyl)amino)methyl)-4H-pyrido[1,2-a]pyrimidin-4-one] returned an IC50 of 0.1 nM. Compound `COc1nc(-c2cccc(-c3cccc(-c4ccn5c(=O)c(CN6CCNC(=O)CC6)cnc5c4)c3Cl)c2Cl)ccc1CNC[C@@H]1CCC(=O)N1` [Example 327, (S)-8-(2,2′-Dichloro-3′-(6-methoxy-5-((((5-oxopyrrolidin-2-yl)methyl)-amino)methyl)-pyridin-2-yl)-[1,1′-biphenyl]-3-yl)-3-((5-oxo-1,4-diazepan-1-yl)methyl)-4H-pyrido[1,2-a]pyrimidin-4-one] had an IC50 of 0.1 nM.

Compound `COc1nc(-c2cccc(-c3cccc(-c4ccn5c(=O)c(CN6CCC(CO)(CO)C6)cnc5c4)c3Cl)c2Cl)ccc1CNC[C@@H]1CCC(=O)N1` [Example 328, (S)-3-((3,3-Bis(hydroxymethyl)pyrrolidin-1-yl)methyl)-8-(2,2′-dichloro-3′-(6-methoxy-5-((((5-oxopyrrolidin-2-yl)methyl)amino)methyl)pyridin-2-yl)-[1,1′-biphenyl]-3-yl)-4H-pyrido[1,2-a]pyrimidin-4-one] came in with an IC50 of 0.1 nM.

Usually IC50 stands for the concentration needed to halve the response being measured. Lower therefore signals higher potency.
